Results taken from US20200061090A1, “AGENT FOR PREVENTING WORSENING OF INSULIN RESISTANCE OR AMELIORATING INSULIN RESISTANCE” (B FOOD SCIENCE CO., LTD., priority 2017, published 2020).

Columns and labels:
[1] = tested on: SD rats; assay: Effect of 1-kestose on rats taking an ordinary diet (healthy model): serum insulin and blood glucose; format: in vivo, rat; conditions: for Serum insulin level / Blood glucose level: average ± SD; for Serum insulin level: Group A control 4.34 ± 0.51; for Blood glucose level: Group A control 207 ± 11
Description: Feed containing 1-kestose in such a way as to be 0, 0.5, 1, 2.5 and 5 mass % was prepared by CLEA Japan, Inc. on commission. The composition of feed is shown below.
Cornstarch: 39.7486, milk casein: 20, pregelatinized cornstarch: 13.2, granulated sugar or granulated sugar and 1-kestose: 10, purified soybean oil: 7, cellulose powder: 5, mineral mix: 3.5, vitamin mix: 1, L-cystine: 0.3, choline bitartrate: 0.25, tertiary butyl hydroquinone: 0.0014.
Forty SD rats (Japan SLC, Inc.) were divided into 5 groups of 8 rats each to be Groups A to E. Group A and Groups B to E had discretionary intake of feed without 1-kestose and 1-kestose-containing feed, respectively, while bred for 30 days. Breeding conditions included a temperature of 23±1° C., a light period of 12 hours (8:00 to 20:00) and a dark period of 12 hours (20:00 to 8:00).
The obtained serum was measured for an insulin level by ELISA technique and a glucose level by glucose oxidase method, to calculate an average value and a standard deviation by each Group. Additionally, serum insulin levels and blood glucose levels are shown in FIG. 1 and FIG. 2 in bar graphs, respectively.

[2] = tested on: SD rats; assay: Effects of 1-kestose on rats taking a high-fat diet (obese model) or ordinary diet: plasma insulin, blood glucose, body weight; format: in vivo, rat; conditions: for Plasma insulin level / Blood glucose level: 135 days; for Plasma insulin level / Blood glucose level / Body weight: average ± SD; for Body weight: end of breeding period (19 weeks)
Description: SD rats (Japan SLC, Inc.) were divided into 4 groups of 6 to 8 rats each to be Group A to Group D. During the breeding period, Group A and Group C had discretionary intake of tap water. On the other hand, Group B and Group D were allowed to take 1-kestose by providing discretionary intake of a solution in which 1-kestose was dissolved in purified water in such a way as to be 2 mass %. Additionally, Group A and Group B had discretionary intake of […] (Research Diets, Inc.) as an “ordinary diet”, and Group C and Group D had discretionary intake of D12492 (Research Diets, Inc.) as a “high-fat diet”. The rats were bred for 135 days with the same breeding conditions as Example 1 (1) except feed. The composition of feed is shown below.
(§1) Casein: 200, L-cystine: 3, Cornstarch: 506.2, maltodextrin 10: 125, sucrose: 68.8, cellulose BW200: 50, purified soybean oil: 25, lard: 20, mineral mix S10026: 10, dicalcium phosphate: 13, calcium carbonate: 5.5, potassium citrate monohydrate: 16.5, vitamin mix V10001: 10, choline bitartrate: 2, yellow synthetic dye (FD&C Yellow Dye #1): 0.04, blue synthetic dye (FD&C Blue Dye #1): 0.01.
as §1, with “3,” for “3, Cornstarch: 506.2,”, “245,” for “20,”, “2,” for “2, yellow synthetic dye (FD&C Yellow Dye #1): 0.04,”, “0.05.” for “0.01.”
As the average intake amount of water taken by a rat per day was about 22 mL/rat.
The rats of each Group in this Example 2 (1) were measured for body weight every week during the breeding period, and an average value by each Group was calculated and expressed in line graphs. Note that the body weights (g) of each Group at the start of breeding period were 272±5 for Group A, 268±6 for Group B, 272±3 for Group C, and 269±3 for Group D.
Further, plasma insulin levels and blood glucose levels were measured by the method described in Example 1 (2) to calculate an average value and a standard deviation by each Group. […] Additionally, insulin levels and glucose levels are shown in FIG. 4 and FIG. 5 in bar graphs, respectively.

[3] = tested on: LETO (Long-Evans Tokushima Otsuka) rats; assay: Effect of 1-kestose on LETO control rats of the type 2 diabetes model: plasma insulin and blood glucose; format: in vivo, rat
Description: (§2) OLETF (Otsuka Long-Evans Tokushima Fatty) rats (Japan SLC, Inc.), which are model animals with pathological conditions of type 2 diabetes, and LETO (Long-Evans Tokushima Otsuka) rats (Japan SLC, Inc.), which are the controls thereof, were prepared. The LETO rats were divided into 2 groups of 5 rats each to be Group A and Group B. Further, the OLETF rats were divided into 3 groups of 8 rats each to be Group C, Group D, and Group E. During the breeding period, Group A and Group C had discretionary intake of “feed without 1-kestose” described in Example 1 (1), Group B and Group E had discretionary intake of “feed containing 5 mass % of 1-kestose”, and Group D had discretionary intake of “feed containing 1 mass % of 1-kestose”. The rats were bred for 14 days with the same breeding conditions as Example 1 (1)
(§3) For the rats of each Group of this Example 3 (1), plasma insulin levels and blood glucose levels were measured by the method described in Example 1 (2) to calculate an average value and a standard deviation by each Group. Additionally, plasma insulin levels and blood glucose levels are shown in FIG. 6 and FIG. 7 in bar graphs, respectively.

[4] = tested on: OLETF (Otsuka Long-Evans Tokushima Fatty) rats; assay: Effect of 1-kestose on type 2 diabetes model OLETF rats: plasma insulin and blood glucose; format: in vivo, rat; conditions: for Plasma insulin level / Blood glucose level: 14 days, average ± SD; for Plasma insulin level: Group C control 3.36 ± 0.53; for Blood glucose level: Group C control 151 ± 6
Description: as §2, §3

[5] = Food processing and ingredients, Vol. 49, No. 12, p. 9, 2014; cited from earlier work
[6] = Group C, feed containing 1% of 1-kestose (0.54 g/kg body weight daily), 30 days
[7] = Group D, feed containing 2.5% of 1-kestose (1.34 g/kg body weight daily), 30 days
[8] = Group E, feed containing 5% of 1-kestose (2.71 g/kg body weight daily), 30 days
[9] = OLETF rats, Group D, feed containing 1% of 1-kestose (table prints 1.34 g/kg body weight daily)
[10] = OLETF rats, Group E, feed containing 5% of 1-kestose (2.71 g/kg body weight daily)

With OC[C@H]1O[C@@](CO)(OC[C@@]2(O[C@H]3O[C@H](CO)[C@@H](O)[C@H](O)[C@H]3O)O[C@H](CO)[C@@H](O)[C@@H]2O)[C@@H](O)[C@@H]1O [1-kestose] as the compound, how does the Serum insulin level ([1]; Group B, feed containing 0.5% of 1-kestose (0.27 g/kg body weight daily), 30 days, n=8) read?
The Serum insulin level was 3.04 ± 0.38 ng/mL.

What about the Blood glucose level ([1]; Group B, feed containing 0.5% of 1-kestose (0.27 g/kg body weight daily), 30 days) of the same compound?
Its Blood glucose level is 202 ± 10 mg/dL.

What about the Serum insulin level [1, 6] of the same compound?
Its Serum insulin level is 3.08 ± 0.31 ng/mL.

And the Blood glucose level [1, 6]?
Its Blood glucose level is 192 ± 11 mg/dL.

And the Serum insulin level [1, 7]?
Its Serum insulin level is 2.56 ± 0.31 ng/mL.

And the Blood glucose level [1, 7]?
The Blood glucose level was 202 ± 4 mg/dL.

What about the Serum insulin level [1, 8] of the same compound?
The Serum insulin level was 2.01 ± 0.24 ng/mL.

And the Blood glucose level [1, 8]?
Its Blood glucose level is 188 ± 7 mg/dL.

What about the “Blood glucose levels compared with rats not taking 1-kestose” value ([1]; Groups A to E, irrelevant to the intake amount) of the same compound?
Its value is “equivalent blood glucose levels”.

And the “Serum insulin levels compared with Group A (rats not taking 1-kestose)” value ([1]; Groups B, C, D and E (0.5 to 5% 1-kestose in feed) vs Group A, 30 days)?
Its value is “significantly lower”.

What about the “Blood glucose levels compared among groups” value ([2]; Groups A to D, regardless of whether or not 1-kestose was taken) of the same compound?
Its value is “equivalent blood glucose levels”.

And the “Plasma insulin levels of rats taking the high-fat diet and 1-kestose compared with rats taking the ordinary diet” value ([2]; High-fat diet, Group D vs Groups A and B, Group C notably higher)?
Its value is “equivalent plasma insulin levels”.

What about the Plasma insulin level ([2]; High-fat diet, Group D, 2 mass % 1-kestose solution (0.44 g/rat daily), Group C tap water 6.65 ± 1.03) of the same compound?
Its Plasma insulin level is 2.28 ± 0.63 ng/mL.

And the Blood glucose level ([2]; High-fat diet, Group D, 2 mass % 1-kestose solution (0.44 g/rat daily), Group C tap water 155 ± 4)?
Its Blood glucose level is 147 ± 2 mg/dL.

And the Body weight ([2]; High-fat diet, Group D, 2 mass % 1-kestose solution (0.44 g/rat daily), Group C tap water 764 ± 32)?
The Body weight was 718 ± 21 g.

What about the Blood glucose level ([2]; Ordinary diet, Group B, 2 mass % 1-kestose solution (0.44 g/rat daily), Group A tap water 147 ± 5) of the same compound?
The Blood glucose level was 143 ± 3 mg/dL.

And the Body weight ([2]; Ordinary diet, Group B, 2 mass % 1-kestose solution (0.44 g/rat daily), Group A tap water 665 ± 14)?
Its Body weight is 679 ± 22 g.

What about the Plasma insulin level ([2]; Ordinary diet, Group B, 2 mass % 1-kestose solution as drinking water (0.44 g/rat daily), Group A tap water 2.48 ± 0.52) of the same compound?
Its Plasma insulin level is 2.30 ± 0.42 ng/mL.

What about the “Plasma insulin levels compared with LETO rats not taking 1-kestose” value ([3]; Group B vs Group A) of the same compound?
The value was “lower plasma insulin levels”.

What about the Plasma insulin level ([3]; LETO rats, Group B, feed containing 5% of 1-kestose (2.71 g/kg body weight daily), 14 days, average ± SD, Group A control 1.49 ± 0.19) of the same compound?
Its Plasma insulin level is 1.08 ± 0.09 ng/mL.

What about the Blood glucose level ([3]; LETO rats, Group B, feed containing 5% of 1-kestose (2.71 g/kg body weight daily), 14 days, average ± SD, Group A control 146 ± 3) of the same compound?
The Blood glucose level was 144 ± 2 mg/dL.

What about the “Blood glucose levels compared among groups” value ([3]; LETO rats, regardless of whether or not 1-kestose was taken) of the same compound?
The value was “equivalent blood glucose levels”.

What about the “Plasma insulin levels compared with OLETF rats not taking 1-kestose” value ([4]; Group C>Group D>Group E) of the same compound?
The value was “lower plasma insulin levels”.

What about the Plasma insulin level [4, 9] of the same compound?
The Plasma insulin level was 3.04 ± 0.69 ng/mL.

And the Blood glucose level [4, 9]?
Its Blood glucose level is 163 ± 4 mg/dL.

What about the Plasma insulin level [4, 10] of the same compound?
Its Plasma insulin level is 2.53 ± 0.29 ng/mL.

And the Blood glucose level [4, 10]?
Its Blood glucose level is 157 ± 3 mg/dL.

And the “Blood glucose levels compared among groups” value ([4]; OLETF rats, regardless of whether or not 1-kestose was taken)?
The value was “equivalent blood glucose levels”.

And the “Toxicity in mutagenicity test, acute toxicity test, subchronic toxicity test and chronic toxicity test” value [5]?
The value was “not recognized to have toxicity”.
